Data published in patent publication US10597388B2, “Pyridazinone herbicides” (FMC CORPORATION, priority 2014, dated 2020).

Legend:
Type in all cases: in vivo
[1] = tested on: morningglory (Ipomoea coccinea); experiment: Test C greenhouse herbicide test, pre- and postemergence
Procedure, shortened: (§1)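 Each species was treated both before emergence, in a loam–sand soil mix, and after emergence, as 1- to 4-leaf seedlings in peat-based potting medium. Plants stayed in the greenhouse 13 to 15 d, then were scored from 0 (no effect) to 100 (complete control) relative to controls.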

[2] = tested on: ryegrass, Italian (Italian ryegrass, Lolium multiflorum); experiment: as above
Procedure, shortened: as §1

[3] = tested on: blackgrass (Alopecurus myosuroides); experiment: as above
Procedure, shortened: as §1

[4] = tested on: barnyardgrass (Echinochloa crus-galli); experiment: as above
Procedure, shortened: as §1

[5] = tested on: wheat (winter wheat, Triticum aestivum); experiment: as above
Procedure, shortened: as §1

[6] = tested on: foxtail, giant (giant foxtail, Setaria faberii); experiment: as above
Procedure, shortened: as §1

[7] = tested on: johnsongrass (Sorghum halepense); experiment: as above
Procedure, shortened: as §1

[8] = tested on: crabgrass, large (large crabgrass, Digitaria sanguinalis); experiment: as above
Procedure, shortened: as §1

corn (Zea mays) = experiment: as above
Procedure, shortened: as §1

[9] = tested on: pigweed (Amaranthus retroflexus); experiment: as above
Procedure, shortened: as §1

soybean (Glycine max) = experiment: as above
Procedure, shortened: as §1

[10] = tested on: ragweed (common ragweed, Ambrosia elatior); experiment: as above
Procedure, shortened: as §1

[11] = tested on: lambsquarters (Chenopodium album); experiment: as above
Procedure, shortened: as §1

[12] = tested on: waterhemp (common waterhemp, Amaranthus rudis); experiment: as above
Procedure, shortened: as §1

[13] = tested on: oat, wild (wild oat, Avena fatua); experiment: Test C greenhouse herbicide test, postemergence
Procedure, shortened: (§2)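 Greenhouse postemergence spray on plants 2–18 cm tall; response judged visually after 13–15 d relative to untreated controls using a 0 (none) to 100 (full control) scale.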

kochia (Kochia scoparia) = experiment: Test C greenhouse herbicide test, postemergence
Procedure, shortened: as §2

[14] = Postemergence, 31 g ai/ha, scale 0 to 100 (0 no effect, 100 complete control)
[15] = Postemergence, 62 g ai/ha, 0 to 100 scale (0 no effect, 100 complete control)
[16] = Postemergence, 250 g ai/ha, scale 0 to 100, 0 is no effect, 100 is complete control
[17] = Preemergence, 31 g ai/ha, scale 0 to 100, 0 is no effect, 100 is complete control
[18] = Preemergence, 62 g ai/ha, scale 0 to 100, 0 is no effect, 100 is complete control
[19] = Preemergence, 125 g ai/ha, scale 0 to 100, 0 is no effect, 100 is complete control
[20] = Preemergence, 250 g ai/ha, scale 0 to 100 (0 no effect, 100 complete control)
[21] = postemergence, 125 g ai/ha, scale 0 to 100, 0 no effect, 100 complete control

CSCC(=O)Oc1c(C)nn(C)c(=O)c1-c1cccc2ccccc12 [Compound 171]
Plant response rating, Morningglory [1, 14]: 90 | Morningglory plant response rating [1, 15]: 100 | Plant response rating, Morningglory [1, 16]: 100 | Plant response rating, Morningglory [1, 17]: 85 | Plant response rating, Morningglory [1, 18]: 90 | Plant response rating, Morningglory [1, 19]: 95 | Morningglory plant response rating [1, 20]: 98 | Morningglory plant response rating [1, 21]: 100 | Plant response rating, Ryegrass, Italian [2, 14]: 90 | Ryegrass, Italian plant response rating [2, 15]: 95 | Plant response rating, Ryegrass, Italian [2, 16]: 95 | Plant response rating, Ryegrass, Italian [2, 17]: 90 | Plant response rating, Ryegrass, Italian [2, 18]: 95 | Plant response rating, Ryegrass, Italian [2, 19]: 95 | Ryegrass, Italian plant response rating [2, 21]: 95 | Plant response rating, Blackgrass [3, 14]: 5 | Blackgrass plant response rating [3, 15]: 30 | Plant response rating, Blackgrass [3, 16]: 55 | Plant response rating, Blackgrass [3, 17]: 30 | Plant response rating, Blackgrass [3, 18]: 40 | Plant response rating, Blackgrass [3, 19]: 45 | Blackgrass plant response rating [3, 20]: 90 | Blackgrass plant response rating [3, 21]: 40 | Plant response rating, Barnyardgrass [4, 14]: 15 | Barnyardgrass plant response rating [4, 15]: 35 | Plant response rating, Barnyardgrass [4, 16]: 60 | Plant response rating, Barnyardgrass [4, 17]: 5 | Plant response rating, Barnyardgrass [4, 18]: 35 | Plant response rating, Barnyardgrass [4, 19]: 75 | Barnyardgrass plant response rating [4, 20]: 95 | Barnyardgrass plant response rating [4, 21]: 40 | Plant response rating, Wheat [5, 14]: 0 | Wheat plant response rating [5, 15]: 15 | Plant response rating, Wheat [5, 16]: 20 | Plant response rating, Wheat [5, 17]: 0 | Plant response rating, Wheat [5, 18]: 5 | Plant response rating, Wheat [5, 19]: 45 | Wheat plant response rating [5, 21]: 30 | Plant response rating, Foxtail, Giant [6, 14]: 10 | Foxtail, Giant plant response rating [6, 15]: 25 | Plant response rating, Foxtail, Giant [6, 16]: 75 | Foxtail, Giant plant response rating [6, 21]: 50 | Plant response rating, Johnsongrass [7, 14]: 5 | Johnsongrass plant response rating [7, 15]: 5 | Plant response rating, Johnsongrass [7, 16]: 20 | Plant response rating, Johnsongrass [7, 17]: 0 | Plant response rating, Johnsongrass [7, 18]: 5 | Plant response rating, Johnsongrass [7, 19]: 10 | Johnsongrass plant response rating [7, 20]: 35 | Johnsongrass plant response rating [7, 21]: 15 | Plant response rating, Crabgrass, Large [8, 14]: 5 | Crabgrass, Large plant response rating [8, 15]: 20 | Plant response rating, Crabgrass, Large [8, 16]: 55 | Plant response rating, Crabgrass, Large [8, 17]: 0 | Plant response rating, Crabgrass, Large [8, 18]: 45 | Plant response rating, Crabgrass, Large [8, 19]: 60 | Crabgrass, Large plant response rating [8, 20]: 80 | Crabgrass, Large plant response rating [8, 21]: 40 | Plant response rating, Corn (corn (Zea mays); [14]): 0 | Corn plant response rating (corn (Zea mays); [15]): 0 | Plant response rating, Corn (corn (Zea mays); [16]): 20 | Plant response rating, Corn (corn (Zea mays); [17]): 0 | Plant response rating, Corn (corn (Zea mays); [18]): 0 | Plant response rating, Corn (corn (Zea mays); [19]): 0 | Corn plant response rating (corn (Zea mays); [20]): 40 | Corn plant response rating (corn (Zea mays); [21]): 10 | Plant response rating, Pigweed [9, 14]: 60 | Pigweed plant response rating [9, 15]: 80 | Plant response rating, Pigweed [9, 16]: 100 | Plant response rating, Pigweed [9, 17]: 70 | Plant response rating, Pigweed [9, 18]: 60 | Plant response rating, Pigweed [9, 19]: 100 | Pigweed plant response rating [9, 20]: 100 | Pigweed plant response rating [9, 21]: 90 | Plant response rating, Soybean (soybean (Glycine max); [14]): 10 | Soybean plant response rating (soybean (Glycine max); [15]): 30 | Plant response rating, Soybean (soybean (Glycine max); [16]): 50 | Plant response rating, Soybean (soybean (Glycine max); [18]): 0 | Plant response rating, Soybean (soybean (Glycine max); [19]): 55 | Soybean plant response rating (soybean (Glycine max); [21]): 60 | Plant response rating, Ragweed [10, 14]: 75 | Ragweed plant response rating [10, 15]: 100 | Plant response rating, Ragweed [10, 16]: 100 | Plant response rating, Ragweed [10, 17]: 65 | Plant response rating, Ragweed [10, 18]: 80 | Plant response rating, Ragweed [10, 19]: 95 | Ragweed plant response rating [10, 21]: 100 | Plant response rating, Lambsquarters [11, 14]: 90 | Lambsquarters plant response rating [11, 15]: 95 | Plant response rating, Lambsquarters [11, 16]: 100 | Plant response rating, Lambsquarters [11, 17]: 98 | Plant response rating, Lambsquarters [11, 18]: 95 | Plant response rating, Lambsquarters [11, 19]: 95 | Lambsquarters plant response rating [11, 20]: 100 | Lambsquarters plant response rating [11, 21]: 98 | Plant response rating, Waterhemp [12, 14]: 75 | Waterhemp plant response rating [12, 15]: 95 | Plant response rating, Waterhemp [12, 16]: 100 | Plant response rating, Waterhemp [12, 17]: 85 | Plant response rating, Waterhemp [12, 18]: 95 | Plant response rating, Waterhemp [12, 19]: 100 | Waterhemp plant response rating [12, 21]: 98 | Plant response rating, Oat, Wild [13, 14]: 65 | Oat, Wild plant response rating [13, 15]: 90 | Plant response rating, Oat, Wild [13, 16]: 95 | Oat, Wild plant response rating [13, 21]: 90 | Plant response rating, Kochia (kochia (Kochia scoparia); [14]): 95 | Kochia plant response rating (kochia (Kochia scoparia); [15]): 95 | Plant response rating, Kochia (kochia (Kochia scoparia); [16]): 98 | Kochia plant response rating (kochia (Kochia scoparia); [21]): 98
